# Measured values as given in BindingDB's records for doi:10.1016/j.bmc.2014.11.013 (University Medical Center Groningen, 2014).
# Assay: Inhibition of human recombinant ADAM17 using Mca-PLAQAV-Dpa-RSSSR-NH2
row,Structure (SMILES),IC50 [nM]
1,CC(C)C[C@H](CC(=O)NO)C(=O)N[C@@H](Cc1ccccc1)C(=O)N[C@@H](CCCCNC(=O)c1ccc(F)cc1)C(N)=O,25
2,CC(C)C[C@H](CC(=O)NO)C(=O)N[C@@H](Cc1ccccc1)C(=O)N[C@@H](CCCCN)C(N)=O,5.7
